In PubChem BioAssay (NCI):
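Exposure lasted 48 hours, with cells grown in 96-well plates and compounds tested at five concentrations. At the TGI there is no net growth.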

Tests used:
Experiment in all cases: NCI anticancer screen, dose series, 48 h
OVCAR-5 ovarian = system: OVCAR-5 ovarian
UACC-62 melanoma = system: UACC-62 melanoma
MDA-MB-231 breast = system: MDA-MB-231 breast
MDA-MB-435 = system: MDA-MB-435
HOP-62 NSCLC = system: HOP-62 NSCLC
A549 NSCLC = system: A549 NSCLC
MDA-N = system: MDA-N
HCT-116 colon = system: HCT-116 colon
TK-10 renal = system: TK-10 renal
SF-295 CNS = system: SF-295 CNS
M14 melanoma = system: M14 melanoma
SNB-19 CNS = system: SNB-19 CNS
CCRF-CEM leukemia = system: CCRF-CEM leukemia
HCT-15 colon = system: HCT-15 colon
NCI-H460 lung = system: NCI-H460 lung
SK-MEL-2 melanoma = system: SK-MEL-2 melanoma
NCI-H522 lung = system: NCI-H522 lung
LOX IMVI melanoma = system: LOX IMVI melanoma
A498 renal = system: A498 renal
SW-620 colon = system: SW-620 colon
NCI-H226 lung = system: NCI-H226 lung
OVCAR-3 ovarian = system: OVCAR-3 ovarian
KM12 colon = system: KM12 colon
SN12C renal = system: SN12C renal
NCI-H23 lung = system: NCI-H23 lung
IGROV1 ovarian = system: IGROV1 ovarian
U251 CNS = system: U251 CNS
CAKI-1 renal = system: CAKI-1 renal
MCF7 breast = system: MCF7 breast
OVCAR-4 ovarian = system: OVCAR-4 ovarian
UO-31 renal = system: UO-31 renal
COLO 205 colon = system: COLO 205 colon
RXF 393 renal = system: RXF 393 renal
ACHN renal = system: ACHN renal
786-0 renal = system: 786-0 renal
SK-MEL-5 melanoma = system: SK-MEL-5 melanoma
SK-OV-3 ovarian = system: SK-OV-3 ovarian
UACC-257 melanoma = system: UACC-257 melanoma
SK-MEL-28 melanoma = system: SK-MEL-28 melanoma
SF-268 CNS = system: SF-268 CNS
BT-549 breast = system: BT-549 breast
HS 578T breast = system: HS 578T breast
NCI/ADR-RES ovarian = system: NCI/ADR-RES ovarian
HOP-92 NSCLC = system: HOP-92 NSCLC
HT29 colon = system: HT29 colon
OVCAR-8 ovarian = system: OVCAR-8 ovarian
MALME-3M melanoma = system: MALME-3M melanoma
EKVX NSCLC = system: EKVX NSCLC
PC-3 prostate = system: PC-3 prostate
SF-539 CNS = system: SF-539 CNS
T-47D breast = system: T-47D breast
DU-145 prostate = system: DU-145 prostate
SNB-75 CNS = system: SNB-75 CNS
HL-60(TB) leukemia = system: HL-60(TB) leukemia
K-562 leukemia = system: K-562 leukemia
HCC-2998 colon = system: HCC-2998 colon
MOLT-4 leukemia = system: MOLT-4 leukemia
RPMI-8226 leukemia = system: RPMI-8226 leukemia

CC(=O)SSC1(Cl)C(C)(C)C(Cl)(SSC(C)=O)C1(C)C (centres undefined)
TGI (OVCAR-5 ovarian): > 100 µM
TGI (UACC-62 melanoma): > 100 µM
TGI (MDA-MB-231 breast): > 100 µM
TGI (MDA-MB-435): > 100 µM
TGI (HOP-62 NSCLC): > 100 µM
TGI (A549 NSCLC): > 100 µM
TGI (MDA-N): > 100 µM
TGI (HCT-116 colon): > 100 µM
TGI (TK-10 renal): > 100 µM
TGI (SF-295 CNS): > 100 µM
TGI (M14 melanoma): > 100 µM
TGI (SNB-19 CNS): > 100 µM
TGI (CCRF-CEM leukemia): 60.2 µM
TGI (HCT-15 colon): > 100 µM
TGI (NCI-H460 lung): 82.9 µM
TGI (SK-MEL-2 melanoma): > 100 µM
TGI (NCI-H522 lung): > 100 µM
TGI (LOX IMVI melanoma): > 100 µM
TGI (A498 renal): > 100 µM
TGI (SW-620 colon): > 100 µM
TGI (NCI-H226 lung): > 100 µM
TGI (OVCAR-3 ovarian): > 100 µM
TGI (KM12 colon): > 100 µM
TGI (SN12C renal): > 100 µM
TGI (NCI-H23 lung): > 100 µM
TGI (IGROV1 ovarian): > 100 µM
TGI (U251 CNS): > 100 µM
TGI (CAKI-1 renal): > 100 µM
TGI (MCF7 breast): > 100 µM
TGI (OVCAR-4 ovarian): > 100 µM
TGI (UO-31 renal): > 100 µM
TGI (COLO 205 colon): > 100 µM
TGI (RXF 393 renal): 48.5 µM
TGI (ACHN renal): > 100 µM
TGI (786-0 renal): > 100 µM
TGI (SK-MEL-5 melanoma): > 100 µM
TGI (SK-OV-3 ovarian): > 100 µM
TGI (UACC-257 melanoma): > 100 µM
TGI (SK-MEL-28 melanoma): > 100 µM
TGI (SF-268 CNS): > 100 µM
TGI (BT-549 breast): > 100 µM
TGI (HS 578T breast): > 100 µM
TGI (NCI/ADR-RES ovarian): > 100 µM
TGI (HOP-92 NSCLC): > 100 µM
TGI (HT29 colon): > 100 µM
TGI (OVCAR-8 ovarian): > 100 µM
TGI (MALME-3M melanoma): > 100 µM
TGI (EKVX NSCLC): > 100 µM
TGI (PC-3 prostate): > 100 µM
TGI (SF-539 CNS): 61.5 µM
TGI (T-47D breast): 51.7 µM
TGI (DU-145 prostate): > 100 µM
TGI (SNB-75 CNS): 82.5 µM

C[C@]12CC[C@@H]3c4cc(Br)c(O)c(Br)c4CC[C@H]3[C@@H]1CCC2=O
TGI (OVCAR-5 ovarian): 65.2 µM
TGI (UACC-62 melanoma): > 100 µM
TGI (MDA-MB-231 breast): > 100 µM
TGI (MDA-MB-435): > 100 µM
TGI (A549 NSCLC): 36.2 µM
TGI (MDA-N): > 100 µM
TGI (HCT-116 colon): > 100 µM
TGI (TK-10 renal): 34.5 µM
TGI (SF-295 CNS): 38.1 µM
TGI (M14 melanoma): > 100 µM
TGI (CCRF-CEM leukemia): > 100 µM
TGI (HCT-15 colon): 26.1 µM
TGI (HL-60(TB) leukemia): > 100 µM
TGI (NCI-H460 lung): 48.9 µM
TGI (SK-MEL-2 melanoma): 38.3 µM
TGI (LOX IMVI melanoma): 71.9 µM
TGI (A498 renal): > 100 µM
TGI (SW-620 colon): > 100 µM
TGI (NCI-H226 lung): 26 µM
TGI (OVCAR-3 ovarian): 31.4 µM
TGI (KM12 colon): > 100 µM
TGI (SN12C renal): 65.1 µM
TGI (NCI-H23 lung): 26.7 µM
TGI (IGROV1 ovarian): > 100 µM
TGI (U251 CNS): 36.5 µM
TGI (CAKI-1 renal): 38.9 µM
TGI (K-562 leukemia): > 100 µM
TGI (MCF7 breast): 43.9 µM
TGI (OVCAR-4 ovarian): 41.9 µM
TGI (UO-31 renal): 24.2 µM
TGI (COLO 205 colon): > 100 µM
TGI (RXF 393 renal): 36.7 µM
TGI (ACHN renal): 26.9 µM
TGI (786-0 renal): 46.4 µM
TGI (SK-OV-3 ovarian): 95.7 µM
TGI (UACC-257 melanoma): 56.1 µM
TGI (SK-MEL-28 melanoma): > 100 µM
TGI (SF-268 CNS): 54.3 µM
TGI (BT-549 breast): 57.7 µM
TGI (HS 578T breast): 52.2 µM
TGI (NCI/ADR-RES ovarian): 36.9 µM
TGI (HCC-2998 colon): 26.9 µM
TGI (HOP-92 NSCLC): > 100 µM
TGI (HT29 colon): > 100 µM
TGI (OVCAR-8 ovarian): 39.5 µM
TGI (MALME-3M melanoma): > 100 µM
TGI (EKVX NSCLC): 74.8 µM
TGI (PC-3 prostate): > 100 µM
TGI (MOLT-4 leukemia): 80.6 µM
TGI (SF-539 CNS): 39.3 µM
TGI (T-47D breast): > 100 µM
TGI (DU-145 prostate): > 100 µM
TGI (SNB-75 CNS): 33.3 µM

COc1ccc2c(c1)c(=O)c1c(NCCN(C)C)ccc3c(=O)n(CCN(C)C)c(=O)n2c31
TGI (OVCAR-5 ovarian): 12.6 µM
TGI (UACC-62 melanoma): 0.984 µM
TGI (MDA-MB-231 breast): 0.855 µM
TGI (MDA-MB-435): 0.538 µM
TGI (HOP-62 NSCLC): 1.78 µM
TGI (A549 NSCLC): 10.2 µM
TGI (MDA-N): 0.254 µM
TGI (HCT-116 colon): 1.06 µM
TGI (TK-10 renal): 3.45 µM
TGI (SF-295 CNS): 12 µM
TGI (M14 melanoma): 0.835 µM
TGI (SNB-19 CNS): 4.3 µM
TGI (RPMI-8226 leukemia): 0.3 µM
TGI (HCT-15 colon): 2.62 µM
TGI (HL-60(TB) leukemia): 0.569 µM
TGI (NCI-H460 lung): 1.46 µM
TGI (SK-MEL-2 melanoma): 0.415 µM
TGI (NCI-H522 lung): 0.31 µM
TGI (LOX IMVI melanoma): 1.22 µM
TGI (A498 renal): 1.35 µM
TGI (NCI-H226 lung): 0.892 µM
TGI (OVCAR-3 ovarian): 2.11 µM
TGI (KM12 colon): 0.659 µM
TGI (SN12C renal): 0.594 µM
TGI (NCI-H23 lung): 0.315 µM
TGI (IGROV1 ovarian): 1.2 µM
TGI (U251 CNS): 2.29 µM
TGI (CAKI-1 renal): 0.599 µM
TGI (K-562 leukemia): 0.0354 µM
TGI (MCF7 breast): 4.75 µM
TGI (OVCAR-4 ovarian): 1.7 µM
TGI (UO-31 renal): 1.03 µM
TGI (COLO 205 colon): 0.247 µM
TGI (ACHN renal): 3.85 µM
TGI (786-0 renal): 0.87 µM
TGI (SK-MEL-5 melanoma): 0.594 µM
TGI (SK-OV-3 ovarian): 11.9 µM
TGI (UACC-257 melanoma): 0.804 µM
TGI (SK-MEL-28 melanoma): 3.71 µM
TGI (SF-268 CNS): 2.13 µM
TGI (BT-549 breast): 3.22 µM
TGI (HS 578T breast): 0.841 µM
TGI (NCI/ADR-RES ovarian): 3.63 µM
TGI (HCC-2998 colon): 0.569 µM
TGI (HOP-92 NSCLC): 0.791 µM
TGI (HT29 colon): 1.39 µM
TGI (OVCAR-8 ovarian): 3.1 µM
TGI (MALME-3M melanoma): 1.02 µM
TGI (EKVX NSCLC): 1.31 µM
TGI (PC-3 prostate): 0.816 µM
TGI (T-47D breast): 5.77 µM
TGI (DU-145 prostate): 1.23 µM
TGI (SNB-75 CNS): 0.719 µM
